Results published in PubChem BioAssay AID256 (DTP/NCI, 2004).
“And” between values parts separate entries of the source, which are not always exact repeats. Identical values can stand only once. Inconclusive results and toxic doses are left out. The calls were made as follows: active = survival T/C of 150% or more; inactive = T/C below 125% in these data.

Test system: CD2F1 mice, L1210 leukemia ip, survival T/C
Assay: NCI In Vivo Anticancer Drug Screen. Data for tumor model L1210 Leukemia (intraperitoneal) in CD2F1 (CDF1) mice
Conditions: endpoint: mean survival time, higher = longer survival
In short: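 Tumor-bearing mice (transplanted tumor) were split into treated and vehicle control groups, and the measured endpoint of each treated group was divided by that of its vehicle controls.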

[1] = dose: 100.0 mg/kg/injection, schedule: Q01DX001 (ip), vehicle: saline
[2] = dose: 200.0 mg/kg/injection, schedule: Q01DX001 (ip), vehicle: saline
[3] = dose: 400.0 mg/kg/injection, schedule: Q01DX001 (ip), vehicle: saline
[4] = dose: 100.0 mg/kg/injection, schedule: Q01DX001 (ip), vehicle: Klucel (hydroxypropylcellulose) (HPC)
[5] = dose: 100.0 mg/kg/injection, schedule: Q01DX001 (ip), vehicle: saline with Tween-80
[6] = dose: 100.0 mg/kg/injection, schedule: Q01DX009 (ip), vehicle: saline with Tween-80
[7] = dose: 200.0 mg/kg/injection, schedule: Q01DX001 (ip), vehicle: saline with Tween-80
[8] = dose: 400.0 mg/kg/injection, schedule: Q01DX001 (ip), vehicle: saline with Tween-80
[9] = dose: 200.0 mg/kg/injection, schedule: Q01DX009 (ip), vehicle: saline with Tween-80
[10] = dose: 400.0 mg/kg/injection, schedule: Q01DX009 (ip), vehicle: saline with Tween-80

Measured: T/C

N=[N+]=CC(=O)CCC(NC(=O)C(CCC(=O)C=[N+]=N)NC(=O)CCC(N)C(=O)O)C(=O)O (stereo unspecified)
inactive: dose: 0.01 mg/kg/injection, schedule: Q01DX009 (ip), vehicle: water 95 % of control | dose: 0.03 mg/kg/injection, schedule: Q01DX009 (ip), vehicle: water 96 % of control | dose: 0.05 mg/kg/injection, schedule: Q01DX009 (ip), vehicle: other 115 % of control and 112 % of control | dose: 0.05 mg/kg/injection, schedule: Q01DX009 (ip), vehicle: water 115 % of control | dose: 0.05 mg/kg/injection, schedule: Q01DX009 (oral), vehicle: water 103 % of control | dose: 0.05 mg/kg/injection, schedule: Q01DX009 (sc), vehicle: water 116 % of control | dose: 0.1 mg/kg/injection, schedule: Q01DX009 (oral), vehicle: water 107 % of control | dose: 0.2 mg/kg/injection, schedule: Q01DX009 (oral), vehicle: water 120 % of control | dose: 0.2 mg/kg/injection, schedule: Q01DX009 (sc), vehicle: water 101 % of control | dose: 0.3 mg/kg/injection, schedule: Q01DX017 (ip), vehicle: saline 111 % of control | dose: 0.4 mg/kg/injection, schedule: Q01DX009 (oral), vehicle: water 90 % of control | dose: 0.4 mg/kg/injection, schedule: Q01DX009 (sc), vehicle: water 98 % of control | dose: 0.5 mg/kg/injection, schedule: Q01DX009 (ip), vehicle: other 116 % of control and 96 % of control and 97 % of control | dose: 0.5 mg/kg/injection, schedule: Q01DX017 (ip), vehicle: saline 112 % of control | dose: 1.0 mg/kg/injection, schedule: Q01DX009 (ip), vehicle: other 87 % of control | dose: 1.6 mg/kg/injection, schedule: Q03HX024 (ip), vehicle: water 100 % of control | dose: 3.1 mg/kg/injection, schedule: Q03HX008 (ip), vehicle: water 110 % of control | dose: 3.1 mg/kg/injection, schedule: Q03HX024 (ip), vehicle: water 87 % of control | dose: 100.0 mg/kg/injection, schedule: Q01DX001 (oral), vehicle: water 124 % of control | dose: 100.0 mg/kg/injection, schedule: Q01DX001 (sc), vehicle: water 96 % of control | dose: 100.0 mg/kg/injection, schedule: Q04DX003 (ip), vehicle: water 109 % of control | dose: 200.0 mg/kg/injection, schedule: Q01DX001 (ip), vehicle: water 118 % of control | dose: 200.0 mg/kg/injection, schedule: Q01DX001 (oral), vehicle: water 121 % of control | dose: 400.0 mg/kg/injection, schedule: Q01DX001 (ip), vehicle: water 92 % of control
active: dose: 0.1 mg/kg/injection, schedule: Q01DX009 (ip), vehicle: other 152 % of control | dose: 0.18 mg/kg/injection, schedule: Q01DX017 (ip), vehicle: saline 157 % of control | dose: 6.25 mg/kg/injection, schedule: Q04DX003 (ip), vehicle: water 155 % of control | dose: 7.5 mg/kg/injection, schedule: Q04DX003 (ip), vehicle: other 162 % of control and 165 % of control and 168 % of control | dose: 12.5 mg/kg/injection, schedule: Q04DX003 (ip), vehicle: water 160 % of control | dose: 15.0 mg/kg/injection, schedule: Q04DX003 (ip), vehicle: other 168 % of control and 177 % of control and 191 % of control | dose: 25.0 mg/kg/injection, schedule: Q04DX003 (ip), vehicle: water 178 % of control | dose: 25.0 mg/kg/injection, schedule: Q08DX002 (ip), vehicle: water 169 % of control | dose: 30.0 mg/kg/injection, schedule: Q04DX003 (ip), vehicle: other 178 % of control and 190 % of control and 191 % of control | dose: 50.0 mg/kg/injection, schedule: Q08DX002 (ip), vehicle: water 165 % of control | dose: 60.0 mg/kg/injection, schedule: Q04DX003 (ip), vehicle: other 155 % of control and 196 % of control and 203 % of control | dose: 100.0 mg/kg/injection, schedule: Q08DX002 (ip), vehicle: water 158 % of control

O=S1(=O)CCCN1c1ccccc1
inactive: [1] 100 % of control | [2] 106 % of control | [3] 103 % of control

S=C1CCNCC1
inactive: dose: 12.5 mg/kg/injection, schedule: Q01DX009 (ip), vehicle: saline 98 % of control | dose: 12.5 mg/kg/injection, schedule: Q04DX003 (ip), vehicle: saline 100 % of control | dose: 25.0 mg/kg/injection, schedule: Q01DX009 (ip), vehicle: saline 103 % of control | dose: 25.0 mg/kg/injection, schedule: Q04DX003 (ip), vehicle: saline 96 % of control | dose: 50.0 mg/kg/injection, schedule: Q01DX009 (ip), vehicle: saline 104 % of control | dose: 50.0 mg/kg/injection, schedule: Q04DX003 (ip), vehicle: saline 87 % of control

CC(C)(C)CC(C)(C)c1ccc(OCCOC(=O)c2ccccc2C(=O)O)cc1
inactive: [4] 90 % of control

CCC1([N+](=O)[O-])COC(c2ccc(Cl)cc2)OC1 (stereo unspecified)
inactive: [4] 104 % of control | dose: 200.0 mg/kg/injection, schedule: Q01DX001 (ip), vehicle: Klucel (hydroxypropylcellulose) (HPC) 86 % of control | dose: 400.0 mg/kg/injection, schedule: Q01DX001 (ip), vehicle: Klucel (hydroxypropylcellulose) (HPC) 111 % of control

Oc1ccc2c3c1OC1C(O)C=CC4C(C2)NCCC341 (stereo unspecified)
inactive: dose: 25.0 mg/kg/injection, schedule: Q04DX003 (ip), vehicle: DMSO 95 % of control | dose: 50.0 mg/kg/injection, schedule: Q04DX003 (ip), vehicle: DMSO 95 % of control | dose: 100.0 mg/kg/injection, schedule: Q04DX003 (ip), vehicle: DMSO 106 % of control

COCC/C(COC)=N/N
inactive: [5] 104 % of control | [6] 94 % of control | [7] 108 % of control | [8] 108 % of control

O=C(O)c1ccc([N+](=O)[O-])nc1
inactive: [5] 91 % of control | [7] 95 % of control | [8] 93 % of control

Nc1nc(Br)nc2c1ncn2C1OC(CO)C(O)C1O (stereo unspecified)
inactive: dose: 75.0 mg/kg/injection, schedule: Q01DX001 (ip), vehicle: saline 109 % of control

CC(C)C([N+](C)(C)C)P(=O)([O-])O (stereo unspecified)
inactive: dose: 100.0 mg/kg/injection, schedule: Q04DX003 (ip), vehicle: saline 101 % of control | dose: 200.0 mg/kg/injection, schedule: Q04DX003 (ip), vehicle: saline 96 % of control | dose: 400.0 mg/kg/injection, schedule: Q04DX003 (ip), vehicle: saline 101 % of control

CC/C(C)=C(/C(=O)O)c1ccccc1
inactive: [6] 95 % of control | [9] 98 % of control | [10] 97 % of control

COc1ccc2c(c1)CCC1C2=CC(=O)/C1=C\[O-].COc1ccc2c(c1)CCC1C2=CC(=O)/C1=C\[O-].[Cu+2] (stereo unspecified)
inactive: dose: 12.5 mg/kg/injection, schedule: Q01DX009 (ip), vehicle: saline with Tween-80 92 % of control | dose: 12.5 mg/kg/injection, schedule: Q04DX003 (ip), vehicle: saline with Tween-80 93 % of control | dose: 25.0 mg/kg/injection, schedule: Q01DX009 (ip), vehicle: saline with Tween-80 95 % of control | dose: 25.0 mg/kg/injection, schedule: Q04DX003 (ip), vehicle: saline with Tween-80 93 % of control | dose: 50.0 mg/kg/injection, schedule: Q01DX009 (ip), vehicle: saline with Tween-80 94 % of control | dose: 50.0 mg/kg/injection, schedule: Q04DX003 (ip), vehicle: saline with Tween-80 96 % of control

CC1=NNC(=O)C1NNc1ccccc1 (stereo unspecified)
inactive: dose: 100.0 mg/kg/injection, schedule: Q04DX003 (ip), vehicle: saline with Tween-80 96 % of control | dose: 200.0 mg/kg/injection, schedule: Q04DX003 (ip), vehicle: saline with Tween-80 96 % of control | dose: 400.0 mg/kg/injection, schedule: Q04DX003 (ip), vehicle: saline with Tween-80 96 % of control

COc1ccc(/C=C(\C#N)c2ccc(C)cc2)cc1OC
inactive: [6] 101 % of control | [9] 108 % of control | [10] 107 % of control

COc1cc2cc(c1Cl)N(C)C(=O)CC(OC(=O)C(C)C)C1(C)OC1C(C)C1CC(O)(NC(=O)O1)C(OC)/C=C/C=C(C)C2 (stereo unspecified)
inactive: dose: 3.8 micrograms/kg/injection, schedule: Q01DX009 (ip), vehicle: saline + alcohol 100 % of control | dose: 7.5 micrograms/kg/injection, schedule: Q01DX009 (ip), vehicle: saline + alcohol 97 % of control | dose: 15.0 micrograms/kg/injection, schedule: Q01DX009 (ip), vehicle: saline + alcohol 114 % of control | dose: 30.0 micrograms/kg/injection, schedule: Q01DX009 (ip), vehicle: saline + alcohol 111 % of control | dose: 60.0 micrograms/kg/injection, schedule: Q01DX009 (ip), vehicle: saline + alcohol 111 % of control

C=CCC1(C)C(OC(C)=O)/C(=C\c2ccco2)CC2(C)c3cc(OC)ccc3CCC21 (stereo unspecified)
inactive: [1] 101 % of control | [2] 96 % of control | [3] 96 % of control
